Reference: patent publication US20070265451A1, “Process for the preparation of oxazolidinones and method of use thereof” (Board of Trustees of Michigan State University, priority 2001, published 2007)
Converted amounts (≈) assume the structure as drawn.

Test system: Staphylococcus aureus 29213
Assay: Broth microdilution MIC, Staphylococcus aureus ATCC 29213
Type: cell-based
Settings: Staphylococcus aureus, ATCC29213, Table 2; read-out: MIC(90-100) SA-ATCC 29213
Text: See, NCCLS document M7-A5. Methods for Dilution Antimicrobial Susceptibility Tests for Bacteria That Grow Aerobically; Approved Standard-Fifth Edition. Volume 20, Number 2. January 2000, (ISBN 1-56238-394-9) and Lorian V. Antibiotics. Laboratory Medicine. 4th ed. Baltimore: Williams and Wilkins, pp. 52-111 (1996). For subsequent testing, the following strains have been used: Staphylococcus aureus NRS4 (992; HIP5836; New Jersey) (Smith et al., New Engl. J. Med. 340: 493-501 (1999); Tenover et al., J. Clin. Microbiol. 36: 1020-1027 (1998)), Staphylococcus aureus NRS3 (963sm; HIP5827; Michigan) (Smith et al., ibid.; Tenover et al., ibid.), Staphylococcus aureus NRS103 (Becker) (Karakawa and Vann, Sem. Infect. Dis. 4: 285 (1982), Staphylococcus aureus NRS102 (Reynolds) Karakawa and Vann, ibid; McMurray et al., JID 162: 759-762 (1990)), Staphylococcus epidermidis NRS101 (ATCC 35984), Streptococcus pneumoniae (ATCC 49619), Enterococcus faecalis (ATCC 51299), and Staphylococcus aureus (ATCC 43300.
Stock cultures of these strains were obtained by seeding colonies from overnight streak plates (Tryptic Soy Agar II (TSAII) and 5% sheep's blood (SB) agar plates: Becton Dickinson, CA#2211261) into sterile Mueller-Hinton Broth (MHB)(Becton Dickinson, CA#211443) and growing the suspensions to mid-late log phase in 13 mL screw-cap tubes. Glycerol (Sigma, CA#G-6279) was sterilized by autoclaving for 15 minutes at 121° C. in 6 mL volumes, and then stored at 2-8° C. This was diluted to 20% in dH2O, and then added 1:1 (250 μL:250 μL, 10% final glycerol concentration) to the logarithmically growing bacterial suspension of each strain. Tubes were frozen and stored at −70° C. Purity of the stock cultures was tested by thawing one tube of each strain in a water bath at 37° C. and plating them on TSAII with 5% SB. Plates were incubated overnight at 37° C. and colonies were examined for morphology. Growth curves and approximate CFU/mL were also obtained.
High purity substituted oxazolidinones prepared according to the method of the present invention and a ZYVOX standard (ZYVOX is a trade name for linezolid available from Pharmacia Corporation) were provided by Synthon Corporation, Monmouth Junction, N.J. Compounds were dissolved at 10 mg/mL in DMSO, as after a dilution of approx. 39.0 to reach the desired final starting concentration of 256 ug/ml, the concentration of DMSO is approximately 2.5%. Compounds were then stored at room temperature (25° C.) in the dark.
Antimicrobial susceptibility screening was as follows. All compounds were initially screened for activity in duplicate at 256 μg/mL (2.5% DMSO), including ZYVOX, the positive control for antimicrobial activity. A single well of bacterially inoculated 2.5% DMSO served as a positive control for bacterial growth, while a well of DMSO inoculated with of 50 μL of sterile 0.9% saline served as a negative growth control. Controls were prepared on every microplate, so that 46 was the maximum number of compounds that were screened per plate. Broth was pipetted into sterile microcentrifuge tubes, to which the compounds were then added (1:19.53 dilution or 2× final concentration). Each tube was vortexed, and 50 μL was immediately transferred to the microplate wells for each strain. Solubility was assessed by visual observation. MB (medium broth solubility) was recorded if the solution appeared only slightly cloudy. LB (low broth solubility) was recorded if the solution was extremely cloudy, and especially if larger, clumpy precipitates formed. Bacteria were grown as described above, although absorbance was measured at 650 nm and bacteria were diluted to an initial OD of 0.12-0.15. Bacteria were then further diluted 1:100 with 0.9% sterile saline. Within 15 minutes of this final dilution, 50 μL of this suspension was added to each well for a final volume of […], and a final bacterial concentration of 1×10^5 CFU/mL (except for the negative control well). Plates were grown as above and all observations were recorded. […]

Compound | MIC [µg/mL]
CC(C)(C)C(=O)CN1C[C@@H](COS(=O)(=O)c2ccc(Cl)c3nonc23)OC1=O [Compound 34, (S)-3-(3,3-dimethyl-2-butone)-5-(7-chloro-2,1,3-benzoxadiazole-4-sulfonyloxymethyl)-2-oxazolidinone] | 250 (≈ 579 µM)
C=CCN1CC(COS(=O)(=O)c2ccc([N+](=O)[O-])cc2)OC1=O (stereo not drawn) [Compound 108] | 62.5 (≈ 183 µM)
CC#CCN1CC(COS(=O)(=O)c2ccc([N+](=O)[O-])cc2)OC1=O (stereo not drawn) [Compound 110] | 31.3 (≈ 88.3 µM)
C#CCN1CC(COS(=O)(=O)c2ccc(Cl)c3nonc23)OC1=O (stereo not drawn) [Compound 235] | 62.5 (≈ 168 µM)
C#CCN1CC(COS(=O)(=O)c2ccc([N+](=O)[O-])cc2)OC1=O (stereo not drawn) [Compound 236] | 31.3 (≈ 92 µM)
O=C1O[C@H](COS(=O)(=O)c2ccc([N+](=O)[O-])cc2)CN1C(=O)C1CC1 [Compound 250] | 250 (≈ 675 µM)
COc1ccc(C(=O)CN2CC(COS(=O)(=O)c3ccc(Cl)c4nonc34)OC2=O)cc1 (stereo not drawn) [Compound 254] | 125 (≈ 259 µM)
O=C(CN1C[C@@H](COS(=O)(=O)c2ccc(Cl)c3nonc23)OC1=O)C1CC1 [Compound 260] | 250 (≈ 601 µM)
CN1CC(COS(=O)(=O)c2ccc([N+](=O)[O-])cc2)OC1=O (stereo not drawn) [Compound 266] | 15.6 (≈ 49.3 µM)
CC(C)(C)C(=O)CCN1C[C@@H](COS(=O)(=O)c2ccc([N+](=O)[O-])cc2)OC1=O [Compound 272] | 250 (≈ 603 µM)
CCOC(=O)CC(C)(C)C(=O)CN1C[C@@H](COS(=O)(=O)c2ccc(Cl)c3nonc23)OC1=O [Compound 291] | 250 (≈ 496 µM)
O=C1O[C@H](COS(=O)(=O)c2ccc([N+](=O)[O-])cc2)CN1C(=O)c1ccco1 [Compound 334] | 62.5 (≈ 158 µM)
CCOC(=O)/C=C/N1CC(COS(=O)(=O)C2=CC=C([N+](=O)[O-])CC2)OC1=O (stereo not drawn) [Compound 388] | 125 (≈ 311 µM)
CC(C)(C)CC(=O)CN1C[C@@H](COS(=O)(=O)c2ccc([N+](=O)[O-])cc2)OC1=O [Compound 533] | 125 (≈ 302 µM)
O=C(CN1C[C@@H](COS(=O)(=O)c2ccc([N+](=O)[O-])cc2)OC1=O)N1CCOCC1 [Compound 589] | 125 (≈ 291 µM)
COC(=O)CN1C[C@@H](COS(=O)(=O)c2ccc([N+](=O)[O-])cc2)OC1=O [Compound 669] | 62.5 (≈ 167 µM)
CCOC(=O)/C=C/N1CC(COS(=O)(=O)c2ccc(Cl)c([N+](=O)[O-])c2)OC1=O (stereo not drawn) [Compound 695] | 62.5 (≈ 144 µM)
CC(C)N1C[C@@H](CNS(=O)(=O)c2ccc([N+](=O)[O-])cc2)OC1=O [Compound 860] | 64 (≈ 186 µM)
CC(C)N1C[C@@H](CNS(=O)(=O)c2ccc([N+](=O)[O-])cc2[N+](=O)[O-])OC1=O [Compound 870] | 16 (≈ 41.2 µM)
CCCCN1CC(COS(=O)(=O)c2cccc3nsnc23)OC1=O (stereo not drawn) [Compound 905] | 256 (≈ 689 µM)
CCOC(=O)CC(C)(C)C(=O)CN1C[C@H](COS(=O)(=O)c2ccc([N+](=O)[O-])cc2)OC1=O [Compound 921] | 256 (≈ 542 µM)
CCC#CCN1C[C@H](COS(=O)(=O)c2ccc(Cl)c3nonc23)OC1=O [Compound 924] | 256 (≈ 640 µM)
O=C1O[C@@H](COS(=O)(=O)c2ccc([N+](=O)[O-])cc2)CN1C(=O)C1CC1 [Compound 929] | 64 (≈ 173 µM)
O=C1O[C@@H](COS(=O)(=O)c2ccc([N+](=O)[O-])cc2)CN1C(=O)c1ccco1 [Compound 942] | 32 (≈ 80.7 µM)
CC(C)N1C[C@H](COS(=O)(=O)c2ccc([N+](=O)[O-])cc2)OC1=O [Compound 952] | 32 (≈ 92.9 µM)
CN(C)C(=O)CN1C[C@@H](COS(=O)(=O)c2ccc(Cl)c3nonc23)OC1=O [Compound 1026] | 256 (≈ 611 µM)
COC(=O)CN1C[C@@H](COS(=O)(=O)c2ccc(Cl)c([N+](=O)[O-])c2)OC1=O [Compound 1058] | 256 (≈ 626 µM)
CC(=O)CN1C[C@@H](COS(=O)(=O)c2ccc([N+](=O)[O-])cc2)OC1=O [Compound 1063] | 16 (≈ 44.7 µM)
CC(=O)CN1C[C@@H](COS(=O)(=O)c2ccc(Cl)c3nonc23)OC1=O [Compound 1066] | 256 (≈ 657 µM)
CC(=O)CN1C[C@@H](COS(=O)(=O)c2ccc(Cl)c([N+](=O)[O-])c2)OC1=O [Compound 1081] | 256 (≈ 652 µM)
